Laboratory results from patent publication US20220033397A1, “PHARMACEUTICAL COMPOUNDS AND THEIR USE AS INHIBITORS OF UBIQUITIN SPECIFIC PROTEASE 19 (USP19)” (ALMAC DISCOVERY LIMITED, priority 2018, published 2022).

Target: T1, Full-length USP19 (Homo sapiens, UniProt O94966)
T1 construct: Full-length USP19 was purchased from Boston Biochem (E-576); purchased Boston Biochem E-576
T1 sequence (O94966 1-1318): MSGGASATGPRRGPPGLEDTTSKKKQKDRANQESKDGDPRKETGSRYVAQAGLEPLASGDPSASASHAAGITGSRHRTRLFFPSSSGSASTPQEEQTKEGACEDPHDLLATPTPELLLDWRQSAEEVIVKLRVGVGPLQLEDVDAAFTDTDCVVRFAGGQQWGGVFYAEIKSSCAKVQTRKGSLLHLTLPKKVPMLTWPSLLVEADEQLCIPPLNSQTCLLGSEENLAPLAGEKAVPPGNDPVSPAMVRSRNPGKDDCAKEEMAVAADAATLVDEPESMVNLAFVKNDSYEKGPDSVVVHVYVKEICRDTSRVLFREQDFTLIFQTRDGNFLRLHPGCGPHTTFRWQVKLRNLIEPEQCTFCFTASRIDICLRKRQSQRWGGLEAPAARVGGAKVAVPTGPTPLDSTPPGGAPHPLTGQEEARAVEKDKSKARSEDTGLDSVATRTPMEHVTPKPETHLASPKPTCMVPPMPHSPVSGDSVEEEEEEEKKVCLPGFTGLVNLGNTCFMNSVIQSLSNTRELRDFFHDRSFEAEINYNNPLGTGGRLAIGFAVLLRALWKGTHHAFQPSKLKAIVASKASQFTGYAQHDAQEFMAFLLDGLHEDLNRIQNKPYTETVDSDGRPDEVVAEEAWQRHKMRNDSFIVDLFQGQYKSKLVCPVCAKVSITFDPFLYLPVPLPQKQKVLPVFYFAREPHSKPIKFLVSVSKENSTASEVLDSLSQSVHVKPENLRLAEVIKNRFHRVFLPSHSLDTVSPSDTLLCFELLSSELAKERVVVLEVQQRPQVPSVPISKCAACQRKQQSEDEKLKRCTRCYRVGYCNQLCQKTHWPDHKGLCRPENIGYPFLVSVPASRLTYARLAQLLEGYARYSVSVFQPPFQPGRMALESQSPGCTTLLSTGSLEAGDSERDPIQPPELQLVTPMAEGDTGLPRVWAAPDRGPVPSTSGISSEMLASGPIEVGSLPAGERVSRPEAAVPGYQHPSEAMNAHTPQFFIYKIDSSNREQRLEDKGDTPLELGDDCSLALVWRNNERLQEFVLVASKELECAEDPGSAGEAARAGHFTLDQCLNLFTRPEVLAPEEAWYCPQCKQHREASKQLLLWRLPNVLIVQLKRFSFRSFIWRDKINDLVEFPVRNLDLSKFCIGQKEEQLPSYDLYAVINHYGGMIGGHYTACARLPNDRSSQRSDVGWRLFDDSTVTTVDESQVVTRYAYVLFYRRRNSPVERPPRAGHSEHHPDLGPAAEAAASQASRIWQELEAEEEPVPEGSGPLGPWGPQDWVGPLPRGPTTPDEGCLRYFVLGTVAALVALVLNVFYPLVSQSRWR
Assay: USP19 fluorescence polarisation (FP) homogeneous assay with Ubiquitin-Lys-TAMRA substrate
Assay type: biochemical
Settings: 2.5 nM USP19, 30 min pre-incubation, average of at least two duplicate experiments
Summary of the method: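 Full-length USP19 preincubated 30 min at RT with inhibitor (200 μM to 2 μM series, 8–18 points) before adding 500 nM Ubiquitin-Lys-TAMRA substrate.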

Compared with `O=C(N1CC[C@@](O)(Cn2cnc(-c3ccccc3)cc2=O)C2(CCCC2)C1)N1CCN(CC(F)(F)F)C[C@H]1c1ccccc1` [Example 323, 3-(((S)-10-Hydroxy-7-((R)-2-phenyl-4-(2,2,2-trifluoroethyl)piperazine-1-carbonyl)-7-azaspiro[4.5]decan-10-yl)methyl)-6-phenylpyrimidin-4(3H)-one], `O=C(N1CCC(O)(Cn2cnc(-c3ccccc3)cc2=O)C2(CCCC2)C1)N1CCCC1c1ccncc1` (stereo not drawn) [Example 249, 3-((10-Hydroxy-7-(2-(pyridin-4-yl)pyrrolidine-1-carbonyl)-7-azaspiro[4.5]decan-10-yl)methyl)-6-phenylpyrimidin-4(3H)-one] is higher in IC50: less than 0.5 µM for the first, 0.5 to 5 µM for the second. The first is the more potent here.

`O=C(NCc1ccc2c(c1)COC2)N1CCC(O)(Cn2cnc(-c3ccccc3)cc2=O)C2(CCCC2)C1` (stereo not drawn) [Example 260, N-((1,3-Dihydroisobenzofuran-5-yl)methyl)-10-hydroxy-10-((6-oxo-4-phenylpyrimidin-1(6H)-yl)methyl)-7-azaspiro[4.5]decane-7-carboxamide] and `O=C(NCc1ccc2c(c1)OCO2)N1CC[C@@](O)(Cn2cnc(-c3ccccc3)cc2=O)C2(CCCC2)C1` [Example 217, (S)—N-(Benzo[d][1,3]dioxol-5-ylmethyl)-10-hydroxy-10-((6-oxo-4-phenylpyrimidin-1(6H)-yl)methyl)-7-azaspiro[4.5]decane-7-carboxamide] fall in the same range of IC50: 5 to 50 µM for the first, 5 to 50 µM for the second.

`C[C@@]1(c2ccccc2)CNCCN1C(=O)N1CC[C@@](O)(Cn2cnc(-c3ccccc3)cc2=O)C2(CCCC2)C1` [Example 390, 3-(((S)-10-Hydroxy-7-((R)-2-methyl-2-phenylpiperazine-1-carbonyl)-7-azaspiro[4.5]decan-10-yl)methyl)-6-phenylpyrimidin-4(3H)-one] and `Cn1cc(-c2cc(=O)n(C[C@]3(O)CCN(C(=O)N4CCNC[C@H]4c4ccccc4)CC34CCCC4)cn2)cn1` [Example 291, 3-(((S)-10-Hydroxy-7-((R)-2-phenylpiperazine-1-carbonyl)-7-azaspiro[4.5]decan-10-yl)methyl)-6-(1-methyl-1H-pyrazol-4-yl)pyrimidin-4(3H)-one] cannot be ordered by IC50: less than 0.5 µM for the first, less than 0.5 µM for the second.

`O=C(N1CC[C@@](O)(Cn2cnc(-c3ccc4c(c3)OCC4)cc2=O)C2(CCCC2)C1)N1CCNC[C@H]1c1ccccc1` [Example 353, 6-(2,3-Dihydrobenzofuran-6-yl)-3-(((S)-10-hy-droxy-7-((R)-2-phenylpiperazine-1-carbonyl)-7-aza-spiro[4.5]decan-10-yl)methyl)pyrimidin-4(3H)-one] and `Cc1cc(=O)n(C[C@]2(O)CCN(C(=O)N3CCNC[C@H]3c3ccccc3)CC23CCCC3)cn1` [Example 300, 3-(((S)-10-Hydroxy-7-((R)-2-phenylpiperazine-1-carbonyl)-7-azaspiro[4.5]decan-10-yl)methyl)-6-methylpyrimidin-4(3H)-one] cannot be ordered by IC50: less than 0.5 µM for the first, less than 0.5 µM for the second.

First: C[C@H](CC1CCCCC1)C(=O)N1CCC(O)(Cn2cc(-c3ccn[nH]3)ncc2=O)C(C)(C)C1 (stereo partly drawn) [Example 17, 1-((1-((R)-3-Cyclohexyl-2-methylpropanoyl)-4-hydroxy-3,3-dimethylpiperidin-4-yl)methyl)-5-(1H-pyrazol-5-yl)pyrazin-2(1H)-one]
Second: C[C@H](CC1CCCCC1)C(=O)N1CCC(O)(Cn2cc(S(C)(=O)=O)c(-c3ccccc3)cc2=O)C2(CCCC2)C1 (stereo partly drawn) [Example 80, 1-((7-((R)-3-Cyclohexyl-2-methylpropanoyl)-10-hydroxy-7-azaspiro[4.5]decan-10-yl)methyl)-5-(methylsulfonyl)-4-phenylpyridin-2(1H)-one]
The IC50 of the first is higher: 0.5 to 5 µM for the first, less than 0.5 µM for the second. The second is the more potent here.

First: O=C(N1CCC(O)(Cn2cnc3cc(F)c(F)cc3c2=O)C2(CCCC2)C1)N1CCNC[C@H]1c1ccccc1 (stereo partly drawn) [Example 170, 6,7-Difluoro-3-((10-hydroxy-7-((R)-2-phenylpiperazine-1-carbonyl)-7-azaspiro[4.5]decan-10-yl)methyl)quinazolin-4(3H)-one]
Second: Cn1cc2ncn(CC3(O)CCN(C(=O)N4CCNC[C@H]4c4ccccc4)CC34CCCC4)c(=O)c2n1 (stereo partly drawn) [Example 179, 6-((10-Hydroxy-7-((R)-2-phenylpiperazine-1-carbonyl)-7-azaspiro[4.5]decan-10-yl)methyl)-2-methyl-2,6-dihydro-7H-pyrazolo[4,3-d]pyrimidin-7-one]
The IC50 of the first is lower: less than 0.5 µM for the first, 5 to 50 µM for the second.

Compared with `O=C(N1CCC(O)(Cn2ccncc2=O)C2(CCCC2)C1)N1CCOC[C@H]1c1ccccc1` (stereo partly drawn) [Example 90, 1-((10-Hydroxy-7-((R)-3-phenylmorpholine-4-carbonyl)-7-azaspiro[4.5]decan-10-yl)methyl)pyrazin-2(1H)-one], `O=C(N1CC[C@@](O)(Cn2cnc(N3CC(F)(F)C3)cc2=O)C2(CCCC2)C1)N1CCNC[C@H]1c1ccccc1` [Example 357, 6-(3,3-Difluoro-azetidin-1-yl)-3-(((S)-10-hydroxy-7-((R)-2-phenylpiperazine-1-carbonyl)-7-aza-spiro[4.5]decan-10-yl)methyl)pyrimidin-4(3H)-one] is lower in IC50: 0.5 to 5 µM for the first, less than 0.5 µM for the second. The second is the more potent here.

First: O=C(N1CC[C@@](O)(Cn2ccc(-c3ccccc3F)cc2=O)C2(CCCC2)C1)N1CCNC[C@H]1c1cccc(F)c1 [Example 391, 4-(2-Fluorophenyl)-1-(((S)-7-((R)-2-(3-fluorophenyl)pipera-zine-1-carbonyl)-10-hydroxy-7-azaspiro[4.5]decan-10-yl)methyl)pyri-din-2(1H)-one]
Second: O=C(N1CCC(O)(Cn2cnc(-c3ccccc3)cc2=O)C2(CCCC2)C1)N1CCC[C@H]1c1ncn[nH]1 (stereo partly drawn) [Example 268, 3-((7-((S)-2-(1H-1,2,4-Triazol-5-yl)pyrrolidine-1-carbonyl)-10-hydroxy-7-azaspiro[4.5]decan-10-yl)methyl)-6-phenylpyrimidin-4(3H)-one]
The IC50 of the first is lower: less than 0.5 µM for the first, 50 to 250 µM for the second. The first is the more potent here.

First: C[C@H](CC(F)(F)F)C(=O)N1CCC(O)(CN2Cc3cnccc3C2=O)C2(CCCC2)C1 (stereo partly drawn) [Example 106, 2-((10-Hydroxy-7-((R)-4,4,4-trifluoro-2-methylbutanoyl)-7-azaspiro[4.5]decan-10-yl)methyl)-2,3-dihydro-1H-pyrrolo[3,4-c]pyridin-1-one]
Second: C[C@H](CC(F)(F)F)C(=O)N1CCC(O)(Cn2cnc3ccc(Cl)cc3c2=O)C2(CCCC2)C1 (stereo partly drawn) [Example 147, 6-Chloro-3-((10-hydroxy-7-((R)-4,4,4-trifluoro-2-methylbutanoyl)-7-azaspiro[4.5]decan-10-yl)methyl)quinazolin-4(3H)-one]
The IC50 of the first is higher: 50 to 250 µM for the first, 0.5 to 5 µM for the second.

Compared with `CC1(C)CN(C(=O)N2CCOC[C@H]2c2ccccc2)CC[C@@]1(O)Cn1ccc(-c2ccccc2)cc1=O` [Example 286], `CN(Cc1ccccc1)C(=O)N1CCC(O)(Cn2cnc(-c3ccccc3F)cc2=O)CC1` [Example 81, N-Benzyl-4-((4-(2-fluorophenyl)-6-oxopyrimidin-1(6H)-yl)methyl)-4-hydroxy-N-methylpiperidine-1-carboxamide] is higher in IC50: less than 0.5 µM for the first, 50 to 250 µM for the second.

Compared with `O=C(NC(C(F)(F)F)C(F)(F)F)N1CC[C@@](O)(Cn2cnc(-c3ccccc3)cc2=O)C2(CCCC2)C1` [Example 308, (S)—N-(1,1,1,3,3,3-Hexafluoropropan-2-yl)-10-hydroxy-10-((6-oxo-4-phenylpyrimidin-1(6H)-yl)methyl)-7-azaspiro[4.5]decane-7-carboxamide], `O=C(NCC1CC(F)(F)C1)N1CC[C@@](O)(Cn2cnc(-c3ccccc3)cc2=O)C2(CCCC2)C1` [Example 307, (S)—N-((3,3-Difluorocyclobutyl)methyl)-10-hydroxy-10-((6-oxo-4-phenylpyrimidin-1(6H)-yl)methyl)-7-azaspiro[4.5]decane-7-carboxamide] is lower in IC50: 0.5 to 5 µM for the first, less than 0.5 µM for the second.

First: COc1ccc2ccn(CC3(O)CCN(C(=O)[C@H](C)CC(F)(F)F)CC34CCCC4)c(=O)c2c1 (stereo partly drawn) [Example 122, 2-((10-Hydroxy-7-((R)-4,4,4-trifluoro-2-methylbutanoyl)-7-azaspiro[4.5]decan-10-yl)methyl)-7-methoxyisoquinolin-1(2H)-one]
Second: CC(=O)N1CCN(CC2(O)CCN(C(=O)NCc3ccccc3)CC23CCCC3)C(=O)C1 (stereo not drawn) [Example 111, 10-((4-Acetyl-2-oxopiperazin-1-yl)methyl)-N-benzyl-10-hydroxy-7-azaspiro[4.5]decane-7-carboxamide]
The IC50 of the first is higher: 50 to 250 µM for the first, 5 to 50 µM for the second. The second is the more potent here.
